Measurements from patent US20220244245A1, “A METHOD OF PROFILING THE ENERGETIC METABOLISM OF A POPULATION OF CELLS” (INSERM (Institut National de la Santé et de la Recherche …, priority 2019, published 2022).

Experiments:
[1] = test system: Flt3L-bmDC; test: ZENITH: protein synthesis (puromycin incorporation, flow cytometry) in Flt3L-bmDC subsets, WT and PERK KO; assay type: cell-based, mouse; conditions: short 2-DG treatment; DC subsets from WT PERKflox/flox and CD11c-CRE PERKflox/flox (PERK KO)
Protocol: Mouse splenocytes from WT C57BL/6J (Jackson) or PERK KO C57BL/6J background mice (Zhang et al., 2002) were cultured in DMEM containing 5% of Fetal Calf Serum (FCS) and 50 μM of 2-Mercaptoethanol (Mouse cells culture media, MCCM) at 37° C. 5% of CO2 GM-CSF BM-derived dendritic cells (GM-bmDCs) were differentiated in vitro from the bone marrow of 6-8-week-old male mice, using GM-CSF, produced by J558L cells. Bone marrow progenitors were plated at 0.8×10^6 cells/ml, 5 ml/well in 6-well plates, and cultivated with RPMI (GIBCO), 5% FCS (Sigma-Aldrich), 20 μg/ml gentamycin (Sigma-Aldrich), 50 μM β-mercaptoethanol (VWR), and GM-CSF. The medium was replaced every 2 days; BM-derived DCs were used for experiments at day 6. Similarly, FLT3L BM-derived dendritic cells (FLT3L-bmDCs) were differentiated by adding FLT3L to RPMI, 10% of Fetal Calf Serum (FCS) and 50 μM of 2-Mercaptoethanol (Mouse cells culture media, MCCM) during 6 days at 37° C. 5% of CO2. To obtain splenocytes, eight weeks old wild type C57BL/6J mice were sacrificed by cervical dislocation and splenectomized. Single cells suspentions from the spleens were generated and cultured in MCCM as previously described. […]
Flow cytometry was conducted using BD LSR II and BD LSR Fortessa X-20 machine (BD Biosciences™) and data were analyzed with FlowJo (Tree Star™) and/or Cytobank. […]

[2] = test system: MEFs; test: ATP measurement (Cell titer-Glo luminescence) in MEFs; assay type: cell-based, mouse
Protocol: 20×104 MEFs were seeded in 100 µl of 5% FCS DMEM culture media ON in opaque 96 well plates. After, 100 ul of Cell titer-Glo luminiscence ATP reconstituted buffer and substrate (Promega, Cat. No. G7570) was added to each well and Luminiscence was measured after 10 minutes following manufacturer instructions. A standard curve with ATP was performed using the same kit and following manufacturer instructions.

O=CC[C@@H](O)[C@H](O)[C@H](O)CO [2-DG, 2-Deoxy-D-Glucose]
protein synthesis in response to 2-DG [1]: decrease protein synthesis

CC[C@H]1/C=C/C=C/C[C@@H](C)[C@H](O)[C@@](C)(O)C(=O)[C@@H](C)[C@H](O)[C@@H](C)C(=O)[C@@H](C)[C@H](O)[C@@H](C)/C=C/C(=O)O[C@@H]2[C@H](C)[C@H](CC1)O[C@]1(CC[C@H](C)[C@H](C[C@@H](C)O)O1)[C@H]2C [Oligomycin]
levels of ATP ([2]; MEFs treated 20-30 minutes with the metabolic inhibitor, FIGS. 3A and 3B): unchanged

C[C@@H]1C[C@@H]([C@H](O)CC2CC(=O)NC(=O)C2)C(=O)[C@@H](C)C1 [CHX, Cycloheximide]
pool of ATP ([2]; MEFs, added on top of Oligo+2-DG, 5 minutes of treatment, compared to Oligo+2-DG treatment (Co), FIG. 2A): significantly higher
